Holding throughout (format): functional
For assay [1], the system named is Prescottella equi. Put plainly: The compound was tested in vitro for antimicrobial activity against gram-positive bacteria Corynebacterium equi (IFO 3720) by conventional paper disk; 7-8.
The test system of the next assay is Bacillus cereus. Kind of assay: The compound was tested in vitro for antimicrobial activity against gram-positive bacteria Bacillus cereus (ATCC 14579) by conventional paper disk; 7-8.
Assay [2] concerns Streptomyces chartreusis. Put plainly: The compound was tested in vitro for antimicrobial activity against […] bacteria Streptomyces chartreusis (NRRL 11407) by conventional paper disk; 9-10.
In assay [3] the test system is Streptomyces chartreusis. Kind of assay: The compound was tested in vitro for antimicrobial activity against […] bacteria Streptomyces chartreusis (NRRL 11407) by conventional paper disk; 7-8.
In another assay the test system is Enterococcus faecalis. Put plainly: The compound was tested in vitro for antimicrobial activity against gram-positive bacteria Enterococcus faecalis (ATCC 11700) by conventional paper disk; 7-8.
Assay [4] relates to Prescottella equi. Kind of assay: The compound was tested in vitro for antimicrobial activity against gram-positive bacteria Corynebacterium equi (IFO 3720) by conventional paper disk; 9-10.

The text below walks through data of ChEMBL document CHEMBL1130545, “Synthesis and antimicrobial activities of 3-N-substituted-4,5-bis(3-indolyl)oxazol-2-ones” (1997).

As for `CCCn1c(-c2c[nH]c3ccccc23)c(-c2c[nH]c3ccccc23)oc1=O`, the Inhibition zone is 7 mm with Prescottella equi [1], 7 mm in the assay on Bacillus cereus and 9 mm with Streptomyces chartreusis [2].

Consider `O=c1oc(-c2c[nH]c3ccccc23)c(-c2c[nH]c3ccccc23)n1Cc1ccccc1`, for which the Inhibition zone in the assay with Prescottella equi [1], in the assay with Bacillus cereus and in the assay on Streptomyces chartreusis [3] was 7 mm each time.

With `C[C@H](C(=O)O)n1c(-c2c[nH]c3ccccc23)c(-c2c[nH]c3ccccc23)oc1=O`, the Inhibition zone came out at 7 mm in the assay on Enterococcus faecalis, 7 mm in the assay on Prescottella equi [1], 7 mm with Bacillus cereus and 9 mm with Streptomyces chartreusis [2].

In the case of `C=CCn1c(-c2c[nH]c3ccccc23)c(-c2c[nH]c3ccccc23)oc1=O`, the Inhibition zone in the assay with Prescottella equi [4] is 9 mm; in the assay with Bacillus cereus, 7 mm; in the assay with Streptomyces chartreusis [2], 9 mm.
